According to US20090227578A1, “Azabenzimidazole Derivatives, Their Manufacture and Use as Anti-Cancer Agents” (priority 2005, published 2009):

Assays:
[1] = target: T1, Src (p60c-src, partially purified, Upstate) (Homo sapiens, UniProt P12931); experiment: SRC-Inhibitor-Assay, time-resolved fluorescence kinase assay (Src); assay type: biochemical; settings: ATP 5 μM; peptide 10 μM; enzyme pre-incubated 15 min at 15° C. with inhibitor
T1 construct: purchased UBI, Upstate Biotech, Inc
Experimental: (§1) SRC-Inhibitor-Assay Parameters:
(§2) Peptides: Ro: NH2-A-E-E-E-I—Y-G-E-F-E-A-K—K—K—K—CONH2, and
(§3) • Ja133-Ro: Ja133-G-Aminocaprylic acid-A-E-E-E-I—Y-G-E-F-E-A-K—K—K—K—CONH2, wherein Ja133 is LightCycler-Red 640-N-hydroxy succinimide ester; • whereby both peptides were synthesized by an optimized solid phase peptide synthesis protocol (Merrifield, Fed. Proc. Fed. Amer. Soc. Exp. Biol. 21 (1962) 412) on a Zinsser SMP350 peptide synthesizer. Shortly, the peptide was assembled on 160 mg (22.8 μmol scale) of a Rink-Linker modified polystyrene solid phase by repeatedly conjugating an twenty fold excess of amino acids each protected by temporary piperidine labile Fmoc- and permanent acid labile tert-Bu-, BOC- and O-tert-Bu-groups depending on the side chain function. The substrate sequence […] was N-terminal additionally mounted with the spacer amino acids Aminocaprylic acid and Glycin. After cleavage of the N-terminal temporary protecting group the still attached and protected peptide was labeled with a 1.5 fold amount of LightCycler-Red 640-N-hydroxy succinimide ester (purchased from Roche Diagnostics GmbH) and triethylamine. After 3 hrs. the resin was washed with Dimethylformamide and Isopropanol until the eluates of the blue resin got colourless. […] The substrate was finally isolated by a preparative reverse phase HPLC purification.
(§4) ATP, Tween 20, 4-(2-hydroxyethyl)-1-piperazineethanesulfonic acid (HEPES) were purchased from Roche Molecular Biochemicals, MgCl2 and MnCl2 were purchased from Merck Eurolab, Tris(2-carboxyethyl)phosphine hydrochloride (TCEP) was purchased from Pierce, 384 Well low volume fluorescence plates was purchased from Falcon.
(§5) At first the enzyme is pre-incubated for 15 min. at 15° C. in aqueous solution with corresponding amounts of inhibitors according to this invention. Then the phosphorylation reaction is started by adding a reaction mixture, containing ATP, Peptide and PT66, and subsequent shaking. The proceeding of this reaction is immediately monitored using time resolved fluorescence spectroscopy in a suitable well plate reader.
(§6) The IC50-values can be obtained from the reaction rates by using a non-linear curve fit (XLfit software (ID Business Solution Ltd., Guilford, Surrey, UK))

[2] = target: T2, Lck (p56lck, active, Upstate) (Homo sapiens, UniProt P06239); experiment: SRC-Inhibitor-Assay, time-resolved fluorescence kinase assay (Lck); assay type: biochemical; settings: ATP 5 μM; peptide 10 μM; enzyme pre-incubated 15 min at 15° C. with inhibitor
T2 construct: purchased UBI, Upstate Biotech, Inc
Text: The activity of the compounds according to this invention as protein kinase inhibitors, in particular for the src-family tyrosine kinases, was shown by using the following assay.
as §1
Eu-labelled phosphotyrosine antibody:—for Lck Cisbio Mab PT66-K, • for Src EG&G Wallac PT66 Eu-W1024 (all commercially available).
as §2
as §3, with “purification. The purification yielded 12.2 mg RP-HPLC single peak pure blue material (lyophilisate). The identity was proven by MALDI mass spectroscopy [2720.0]. • Enzymes: Upstate Lck (p56^lck, active), Upstate Src (p60^c-src, partially purified) were purchased from UBI, Upstate Biotech, Inc. Time-resolved Fluorescence Assay: Reader: Perkin Elmer, Wallac Viktor 1420-040 multilabel counter; Liquid handling system: Beckman Coulter, Biomek 2000.” for “purification.”
as §4, §5, §6

T2 sequence (P06239 whole entry): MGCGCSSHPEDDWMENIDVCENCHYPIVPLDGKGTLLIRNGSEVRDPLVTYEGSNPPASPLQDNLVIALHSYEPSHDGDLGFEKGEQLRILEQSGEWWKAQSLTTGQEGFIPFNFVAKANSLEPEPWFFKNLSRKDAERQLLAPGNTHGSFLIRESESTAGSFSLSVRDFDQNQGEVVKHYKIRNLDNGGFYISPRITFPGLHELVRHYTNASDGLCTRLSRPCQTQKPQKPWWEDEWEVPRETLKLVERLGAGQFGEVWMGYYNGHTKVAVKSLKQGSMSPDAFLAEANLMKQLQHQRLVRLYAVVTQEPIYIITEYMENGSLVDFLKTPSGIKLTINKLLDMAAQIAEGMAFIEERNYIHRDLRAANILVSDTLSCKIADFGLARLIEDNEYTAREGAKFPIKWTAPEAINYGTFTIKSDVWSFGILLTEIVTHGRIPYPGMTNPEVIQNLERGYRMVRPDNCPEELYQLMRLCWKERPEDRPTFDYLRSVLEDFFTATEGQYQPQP
T1 sequence (P12931 whole entry): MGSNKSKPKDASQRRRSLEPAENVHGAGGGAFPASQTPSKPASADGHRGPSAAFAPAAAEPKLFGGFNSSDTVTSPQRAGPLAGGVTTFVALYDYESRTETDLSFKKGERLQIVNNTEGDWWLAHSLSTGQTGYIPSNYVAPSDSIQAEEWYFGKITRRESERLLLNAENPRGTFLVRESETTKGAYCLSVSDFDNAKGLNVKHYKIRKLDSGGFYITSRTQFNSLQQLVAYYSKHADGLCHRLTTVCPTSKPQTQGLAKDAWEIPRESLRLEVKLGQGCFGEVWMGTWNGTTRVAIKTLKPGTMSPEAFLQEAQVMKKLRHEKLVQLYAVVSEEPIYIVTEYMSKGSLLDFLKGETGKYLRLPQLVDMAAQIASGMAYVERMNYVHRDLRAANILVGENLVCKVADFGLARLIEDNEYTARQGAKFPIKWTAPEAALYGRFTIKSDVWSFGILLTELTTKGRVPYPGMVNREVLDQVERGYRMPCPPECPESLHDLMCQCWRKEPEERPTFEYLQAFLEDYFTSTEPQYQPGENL

Row | IC50 [1] | IC50 [2] | Structure (SMILES)
1 | 100 to 1000 nM | 10 to 100 nM | Cc1ccc(NC(=O)/C=C/c2ccncc2)cc1C(=O)Nc1cnc2[nH]c(-c3ccccc3)nc2c1 [Example 1-1, 2-Methyl-N-(2-phenyl-3H-imidazo[4,5-b]pyridin-6-yl)-5-((E)-3-pyridin-4-yl-acryloylamino)-benzamide]
2 | 10 to 100 nM | 10 to 100 nM | Cc1ccc(NC(=O)/C=C/c2cccnc2)cc1C(=O)Nc1cnc2[nH]c(-c3ccccc3)nc2c1 [Example 1-2, 2-Methyl-N-(2-phenyl-3H-imidazo[4,5-b]pyridin-6-yl)-5-((E)-3-pyridin-3-yl-acryloylamino)-benzamide]
3 | 43 nM | 64 nM | Cc1ccc(NC(=O)c2ccc(N3CCOCC3)cc2)cc1C(=O)Nc1cnc2[nH]c(-c3ccccc3)nc2c1 [Example 1-3, 2-Methyl-5-(4-morpholin-4-yl-benzoylamino)-N-(2-phenyl-3H-imidazo[4,5-b]pyridin-6-yl)-benzamide]
4 | 10 to 100 nM | 10 to 100 nM | Cc1ccc(NC(=O)/C=C/c2ccccc2)cc1C(=O)Nc1cnc2[nH]c(-c3ccccc3)nc2c1 [Example 1-4, 2-Methyl-5-[(E)-(3-phenyl-acryloyl)amino]-N-(2-phenyl-3H-imidazo[4,5-b]pyridin-6-yl)-benzamide]
5 | 10 to 100 nM | 10 to 100 nM | Cc1ccc(NC(=O)c2ccccc2)cc1C(=O)Nc1cnc2[nH]c(-c3ccccc3)nc2c1 [Example 1-5, 5-Benzoylamino-2-methyl-N-(2-phenyl-3H-imidazo[4,5-b]pyridin-6-yl)-benzamide]
6 | 10 to 100 nM | 100 to 1000 nM | Cc1ccc(NC(=O)c2cccc(-c3ccccc3)c2)cc1C(=O)Nc1cnc2[nH]c(-c3ccccc3)nc2c1 [Example 1-6, Biphenyl-3-carboxylic acid[4-methyl-3-(2-phenyl-3H-imidazo[4,5-b]pyridin-6-ylcarbamoyl)-phenyl]-amide]
7 | 10 to 100 nM | 10 to 100 nM | O=C(Nc1ccc(Cl)c(C(=O)Nc2cnc3[nH]c(-c4ccccc4)nc3c2)c1)c1ccc(N2CCOCC2)cc1 [Example 2-1, 2-Chloro-5-(4-morpholin-4-yl-benzoylamino)-N-(2-phenyl-3H-imidazo[4,5-b]pyridin-6-yl)-benzamide]
8 | – | 10 to 100 nM | O=C(/C=C/c1ccccc1)Nc1ccc(Cl)c(C(=O)Nc2cnc3[nH]c(-c4ccccc4)nc3c2)c1 [Example 2-2, 2-Chloro-5-[(E)-(3-phenyl-acryloyl)amino]-N-(2-phenyl-3H-imidazo[4,5-b]pyridin-6-yl)-benzamide]
9 | 64 nM | 200 nM | O=C(Nc1ccc(Cl)c(C(=O)Nc2cnc3[nH]c(-c4ccccc4)nc3c2)c1)c1cccc(-c2ccccc2)c1 [Example 2-4, Biphenyl-3-carboxylic acid[4-chloro-3-(2-phenyl-3H-imidazo[4,5-b]pyridin-6-ylcarbamoyl)-phenyl]-amide]
10 | – | 10 to 100 nM | O=C(Nc1ccc(Cl)c(C(=O)Nc2cnc3[nH]c(-c4ccccc4)nc3c2)c1)c1ccccc1 [Example 2-5, 5-Benzoylamino-2-chloro-N-(2-phenyl-3H-imidazo[4,5-b]pyridin-6-yl)-benzamide]
